Results from patent publication US20180042931A1 (Bayer Pharma Aktiengesellschaft, priority 2015, published 2018).

How the values were obtained:
[1] = tested on: FOP control vector (randomized, non-functional sequence instead of functional TCF elements) in HCT116 cells; assay: Control reporter assay, HCT116 cells stably transfected with FOP control vector (HCT116-FOP), luciferase readout; type: cell-based; conditions: Homo sapiens, HCT-116, 36 hours incubation, luciferase expression, dilution series up to 50 μM
Procedure: In a parallel approach, HCT116 cells were cotransfected with the FOP control vector and pcDNA3. The FOP vector is identical to the TOP construct, but it contains instead of functional TCF elements a randomized, non-functional sequence. For this transfection a stable transfected cell line was generated as well.
(§1) In preparation of the assay, the two cell lines were plated 24 hours before at 10000 cells per well of a 384 micro titre plate (MTP) in 30 μL growth medium. Selective inhibitory activity for small molecules on the mutated Wnt pathway was determined after parallel incubation of both (TOP and FOP) HCT116 reporter cell lines with a compound dilution series from 50 μM to 15 nM in steps of 3.16-fold dilutions in CAFTY buffer (130 mM NaCl, 5 mM KCl, 20 mM HEPES, 1 mM MgCl2, 5 mM NaHCO3, pH 7.4) containing 2 mM Ca^2+ and 0.01% BSA. The compounds were thereby serially prediluted in 100% DMSO and thereafter in addition 50 fold into the CAFTY compound dilution buffer (described above). From this dilution 10 μL were added to the cells in 30 μL growth medium and incubated for 36 hours at 37° C. and 5% CO2. Thereafter luciferase assay buffer (1:1 mixture of luciferase substrate buffer (20 mM Tricine, 2.67 mM MgSO4, 0.1 mM EDTA, 4 mM DTT, 270 μM Coenzyme A, 470 μM Luciferin, 530 μM ATP, ph adjusted to pH 7.8 with a sufficient volume of 5M NaOH) and Triton buffer (30 mL Triton X-100, 115 mL glycerol, 308 mg Dithiothreitol, 4.45 g Na2HPO4.2H2O, 3.03 g TRIS HCl, ad 1I H2O, pH 7.8) was added as equal volume to the compound solution on the cells to determine luciferase expression as a measure of Wnt signaling activity in a luminometer.

[2] = tested on: constitutive active colorectal cancer cell (CRC) Wnt pathway; assay: Cellular reporter assay, HCT116 cells stably transfected with Super TopFlash vector (HCT116-TOP), luciferase readout; type: cell-based; conditions: Homo sapiens, HCT-116, 36 hours incubation, luciferase expression, average or median values
Procedure: In order to discover and characterize small molecules which inhibit the constitutive active colorectal cancer cell (CRC) Wnt pathway, a cellular reporter assay was employed. The corresponding assay cell was generated by transfection of the colorectal cancer cell line HCT116 (ATCC, #CCL-247) with the Super TopFlash vector (Morin, Science 275, 1997, 1787-1790; Molenaar et al., Cell 86 (3), 1996, 391-399). The HCT116 cell line is cultivated at 37° C. and 5% CO2 in DMEM/F-12 (Life Technologies, #11320-074), supplemented with 2 mM glutamine, 20 mM HEPES, 1.4 mM pyruvate, 0.15% Na-bicarbonate and 10% foetal bovine serum (GIBCO, #10270), this cancer cell line is pathophysiological relevant since it carries a deletion of position S45 in the β-catenin gene, leading to constitutive active Wnt signaling. Stable transfectants were generated by cotransfection with pcDNA3 and selection of stable transfected cells with 1 mg/mL G418.
as §1

| SMILES | IC50 [1] [µM] | IC50 [2] [µM] |
| --- | --- | --- |
| O=C(Nc1ccc(-c2cccnc2F)cc1)c1ccc(F)c(NC(=O)C2(N3CCOCC3)CC2)c1 [Example 26, 4-fluoro-N-[4-(2-fluoropyridin-3-yl)phenyl]-3-({[1-(morpholin-4-yl)cyclopropyl]carbonyl}-amino)benzamide] | ≥ 50 | 0.014 |
| O=C(CN1CCOCC1)Nc1cc(C(=O)Nc2ccc(-c3cccnc3)cc2)ccc1OC(F)F [Example 27, 4-(difluoromethoxy)-3-[(morpholin-4-ylacetyl)amino]-N-[4-(pyridin-3-yl)phenyl]benzamide] | ≥ 50 | 0.037 |
| Nc1ncc(-c2ccc(NC(=O)c3ccc(OC(F)F)c(NC(=O)CN4CCOCC4)c3)cc2)cn1 [Example 28, N-[4-(2-aminopyrimidin-5-yl)phenyl]-4-(difluoromethoxy)-3-[(morpholin-4-ylacetyl)amino]benzamide] | 39 | 0.226 |
| Nc1ccc(-c2ccc(NC(=O)c3ccc(OC(F)F)c(NC(=O)CN4CCOCC4)c3)cc2)cn1 [Example 29, N-[4-(6-aminopyridin-3-yl)phenyl]-4-(difluoromethoxy)-3-[(morpholin-4-ylacetyl)amino]benzamide] | ≥ 50 | 0.0488 |
| CN1CCN(CC(=O)Nc2cc(C(=O)Nc3ccc(-c4cccnc4)cc3)ccc2OC(F)(F)F)CC1 [Example 30, 3-{[(4-methylpiperazin-1-yl)acetyl]amino}-N-[4-(pyridin-3-yl)phenyl]-4-(trifluoromethoxy)benzamide] | 38.5 | 0.0313 |
| CN1CCN(CC(=O)Nc2cc(C(=O)Nc3ccc(-c4cccnc4F)cc3)ccc2OC(F)(F)F)CC1 [Example 31, N-[4-(2-fluoropyridin-3-yl)phenyl]-3-{[(4-methylpiperazin-1-yl)acetyl]amino}-4-(trifluoromethoxy)benzamide] | 38.5 | 0.0318 |
| CN1CCN(CC(=O)Nc2cc(C(=O)Nc3ccc(-c4cncnc4)cc3)ccc2OC(F)(F)F)CC1 [Example 32, 3-{[(4-methylpiperazin-1-yl)acetyl]amino}-N-[4-(pyrimidin-5-yl)phenyl]-4-(trifluoromethoxy)benzamide] | 40 | 0.0475 |
| CN1CCN(CC(=O)Nc2cc(C(=O)Nc3ccc(-c4cnc(N)nc4)cc3)ccc2OC(F)(F)F)CC1 [Example 33] | ≥ 50 | 0.0555 |
| CN1CCN(CC(=O)Nc2cc(C(=O)Nc3ccc(-c4ccc(N)nc4)cc3)ccc2OC(F)(F)F)CC1 [Example 34, N-[4-(6-aminopyridin-3-yl)phenyl]-3-{[(4-methylpiperazin-1-yl)acetyl]amino}-4-(trifluoromethoxy)-benzamide] | 28 | 0.0253 |
| O=C(CN1CCOCC1)Nc1cc(C(=O)Nc2ccc(-c3cccnc3)cc2)ccc1OC1CC1 [Example 35, 4-(cyclopropyloxy)-3-[(morpholin-4-ylacetyl)amino]-N-[4-(pyridin-3-yl)phenyl]benzamide] | ≥ 50 | 0.023 |
| COc1ccc(NC(=O)c2ccc(-c3cnn(C)c3)cc2)cc1NC(=O)CN1CCOCC1 [Example 36, N-{4-methoxy-3-[(morpholin-4-ylacetyl)amino]phenyl}-4-(1-methyl-1H-pyrazol-4-yl)benzamide] | ≥ 50 | 15.6 |
| COc1ccc(NC(=O)c2ccc(-c3cnc(N)nc3)cc2)cc1NC(=O)CN1CCOCC1 [Example 37, 4-(2-aminopyrimidin-5-yl)-N-{4-methoxy-3-[(morpholin-4-ylacetyl)amino]phenyl} benzamide] | ≥ 50 | 23 |
| COc1ccc(NC(=O)c2ccc(-c3cccnc3)cc2)cc1NC(=O)CN1CCOCC1 [Example 38, N-{4-methoxy-3-[(morpholin-4-ylacetyl)amino]phenyl)-4-(pyridin-3-yl)benzamide] | ≥ 50 | 10.9 |
| O=C(CN1CCOCC1)Nc1cc(C(=O)Nc2ccc(-c3cccnc3F)cc2)ccc1OC(F)F [Example 39, 4-(difluoromethoxy)-N-[4-(2-fluoropyridin-3-yl)phenyl]-3-[(morpholin-4-ylacetyl)amino] benzamide] | ≥ 50 | 5.4 |
